The term IC50 denotes the point on the concentration scale where inhibition reaches its midpoint.

Bounds are passed on as bounds.

In the experiment the target is Recombinant human IDO (Homo sapiens, UniProt P14902). Nature of the experiment: Bridge-IT tryptophan fluorescence assay of human IDO-1 inhibition. Type of experiment: biochemical. Conditions: recombinant human IDO 7.5 nM, L-tryptophan. Here is the method: Measurement of human IDO-1 inhibition is performed in 384 well format using the Bridge-IT® tryptophan Fluorescence Assay (Mediomics, LLC, St. Louis, Mo., U.S.A.).
Recombinant human IDO, sequence (P14902 whole entry): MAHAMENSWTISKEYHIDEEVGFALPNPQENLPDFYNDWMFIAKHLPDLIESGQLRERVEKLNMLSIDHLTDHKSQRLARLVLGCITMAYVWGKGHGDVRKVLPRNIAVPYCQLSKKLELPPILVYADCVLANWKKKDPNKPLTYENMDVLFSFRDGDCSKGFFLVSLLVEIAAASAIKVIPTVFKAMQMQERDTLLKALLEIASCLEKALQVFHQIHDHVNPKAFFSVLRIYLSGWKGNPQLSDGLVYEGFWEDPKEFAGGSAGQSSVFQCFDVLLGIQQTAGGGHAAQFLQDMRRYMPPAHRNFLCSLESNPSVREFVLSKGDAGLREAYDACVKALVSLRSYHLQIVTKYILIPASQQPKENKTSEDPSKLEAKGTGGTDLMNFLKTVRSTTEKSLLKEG
The reaction is initiated by the addition of L-Tryptophan (Sigma) at a final concentration of 100 μM in assay buffer. After 90 minutes of incubation at 37° C., the reaction is stopped by transferring 1 μl of the reaction mixture to 9 μl of Bridge-IT assay solution A. After 30 min of incubation at 30° C., the fluorescence intensity was measured at λex=485 nm and λem=665 nm using Perkin Elmer Envision® Multilabel Reader.
Measurement of human IDO-1 inhibition was performed in 384-well format using the BRIDGE-IT® tryptophan Fluorescence Assay (Mediomics, LLC, St. Louis, Mo., U.S.A.). […] After 30 minutes of pre-incubation at 25° C., the reaction was initiated by the addition of L-Tryptophan (Sigma) at a final concentration of 50 μM in assay buffer. After 60 minutes of incubation at 25° C., the reaction is stopped by transferring 1 μl of the reaction mixture to 9 μl of Bridge-IT assay solution A. After 30 min of incubation at 30° C., the fluorescence intensity was measured at λex=485 nm and λem=665 nm using Perkin Elmer ENVISION® Multilabel Reader.
As to `OC(CC1c2nc(F)ccc2-c2cncn21)C1CCC(F)(F)CC1` (single isomer, unassigned) [Compound 26a, 1-(4,4-difluorocyclohexyl)-2-[10-fluoro-4,6,9-triazatricyclo[6.4.0.0^[2,6]]dodeca-1(8),2,4,9,11-pentaen-7-yl]ethan-1-ol], the IC50 was greater than 1000 nM. For `OC(CC1c2nc(F)ccc2-c2cncn21)C1CCC(F)(F)CC1` (single isomer, unassigned) [Compound 26b, 1-(4,4-difluorocyclohexyl)-2-[10-fluoro-4,6,9-triazatricyclo[6.4.0.0^[2,6]]dodeca-1(8),2,4,9,11-pentaen-7-yl]ethan-1-ol], the IC50 fell in the range of 100 to 1000 nM. To `OC(CC1c2ncccc2-c2cncn21)C1CCC2(CC1)CC2` (single isomer, unassigned) [Compound 29a, 1-[spiro[2.5]octan-6-yl]-2-[4,6,9-triazatricyclo[6.4.0.0^[2,6]]dodeca-1(8),2,4,9,11-pentaen-7-yl]ethan-1-ol] belongs 100 to 1000 nM. To `OC(CC1c2ncccc2-c2cncn21)C1CCC2(CC1)CC2` (single isomer, unassigned) [Compound 29b, 1-[spiro[2.5]octan-6-yl]-2-[4,6,9-triazatricyclo[6.4.0.0^[2,6]]dodeca-1(8),2,4,9,11-pentaen-7-yl]ethan-1-ol] belongs greater than 1000 nM; to `OC(CC1c2ncccc2-c2cncn21)C1CCC2(CC1)CC2` (single isomer, unassigned) [Compound 29c, 1-[spiro[2.5]octan-6-yl]-2-[4,6,9-triazatricyclo[6.4.0.0^[2,6]]dodeca-1(8),2,4,9,11-pentaen-7-yl]ethan-1-ol], 100 to 1000 nM; to `OC(CC1c2ncccc2-c2cncn21)C1CCC2(CC1)CC2` (single isomer, unassigned) [Compound 29d, 1-[spiro[2.5]octan-6-yl]-2-[4,6,9-triazatricyclo[6.4.0.0^[2,6]]dodeca-1(8),2,4,9,11-pentaen-7-yl]ethan-1-ol], greater than 1000 nM. For the compound `FC1(CCC2c3ncccc3-c3cncn32)CCC2(CC1)CC2` (single isomer, unassigned) [Compound 30a, 7-(2-{6-fluorospiro[2.5]octan-6-yl}ethyl)-4,6,9-triazatricyclo[6.4.0.0^[2,6]]dodeca-1(8),2,4,9,11-pentaene], the IC50 was in the range of 100 to 1000 nM. As for `FC1(CCC2c3ncccc3-c3cncn32)CCC2(CC1)CC2` (single isomer, unassigned) [Compound 30b, 7-(2-{6-fluorospiro[2.5]octan-6-yl}ethyl)-4,6,9-triazatricyclo[6.4.0.0^[2,6]]dodeca-1(8),2,4,9,11-pentaene], the figure is greater than 1000 nM; as for `COc1ccc2c(n1)C(CCC1(F)CCCCC1)n1cncc1-2` (single isomer, unassigned) [Compound 32a, 7-[2-(1-fluorocyclohexyl)ethyl]-10-methoxy-4,6,9-triazatricyclo[6.4.0.0^[2,6]]dodeca-1(8),2,4,9,11-pentaene], greater than 1000 nM; as for `COc1ccc2c(n1)C(CCC1(F)CCCCC1)n1cncc1-2` (single isomer, unassigned) [Compound 32b, 7-[2-(1-fluorocyclohexyl)ethyl]-10-methoxy-4,6,9-triazatricyclo[6.4.0.0^[2,6]]dodeca-1(8),2,4,9,11-pentaene], 100 to 1000 nM. As for `COc1ccc2c(n1)C(CCC1(F)CCC(F)(F)CC1)n1cncc1-2` (single isomer, unassigned) [Compound 34a, 10-methoxy-7-[2-(1,4,4-trifluorocyclohexyl)ethyl]-4,6,9-triazatricyclo[6.4.0.0^[2,6]]dodeca-1(8),2,4,9,11-pentaene], the figure is less than 100 nM; as for `COc1ccc2c(n1)C(CCC1(F)CCC(F)(F)CC1)n1cncc1-2` (single isomer, unassigned) [Compound 34b, 10-methoxy-7-[2-(1,4,4-trifluorocyclohexyl)ethyl]-4,6,9-triazatricyclo[6.4.0.0^[2,6]]dodeca-1(8),2,4,9,11-pentaene], greater than 1000 nM; as for `OC1CCC(F)(CCC2c3cccc(F)c3-c3cncn32)CC1` (single isomer, unassigned) [Compound 35a, 4-fluoro-4-(2-(9-fluoro-5H-imidazo[5,1-a]isoindol-5-yl)ethyl)cyclohexanol], greater than 1000 nM.

Take `OC1CCC(F)(CCC2c3cccc(F)c3-c3cncn32)CC1` (single isomer, unassigned) [Compound 35b, 4-fluoro-4-(2-(9-fluoro-5H-imidazo[5,1-a]isoindol-5-yl)ethyl)cyclohexanol]: the IC50 lay within 100 to 1000 nM. Regarding `OC1CCC(F)(CCC2c3cccc(F)c3-c3cncn32)CC1` (single isomer, unassigned) [Compound 35c, 4-fluoro-4-(2-(9-fluoro-5H-imidazo[5,1-a]isoindol-5-yl)ethyl)cyclohexanol], the IC50 was less than 100 nM. As for `OC1CCC(F)(CCC2c3cccc(F)c3-c3cncn32)CC1` (single isomer, unassigned) [Compound 35d, 4-fluoro-4-(2-(9-fluoro-5H-imidazo[5,1-a]isoindol-5-yl)ethyl)cyclohexanol], the figure is greater than 1000 nM; as for `Fc1cccc2c1-c1cncn1C2CCC1(F)CCCCC1` (single isomer, unassigned) [Compound 36a, 9-fluoro-5-(2-(1-fluorocyclohexyl)ethyl)-5H-imidazo[5,1-a]isoindole], greater than 1000 nM; as for `Fc1cccc2c1-c1cncn1C2CCC1(F)CCCCC1` (single isomer, unassigned) [Compound 36b, 9-fluoro-5-(2-(1-fluorocyclohexyl)ethyl)-5H-imidazo[5,1-a]isoindole], greater than 1000 nM. To `Fc1ccc(F)c2c1-c1cncn1C2CCC1(F)CCCCC1` (single isomer, unassigned) [Compound 37a, 6,9-difluoro-5-(2-(1-fluorocyclohexyl)ethyl)-5H-imidazo[5,1-a]isoindole] belongs greater than 1000 nM; to `Fc1ccc(F)c2c1-c1cncn1C2CCC1(F)CCCCC1` (single isomer, unassigned) [Compound 37b, 6,9-difluoro-5-(2-(1-fluorocyclohexyl)ethyl)-5H-imidazo[5,1-a]isoindole], 100 to 1000 nM; to `OC1CCC(F)(CCC2c3c(F)ccc(F)c3-c3cncn32)CC1` (single isomer, unassigned) [Compound 38a, 4-(2-(6,9-difluoro-5H-imidazo[5,1-a]isoindol-5-yl)ethyl)-4-fluorocyclohexanol], greater than 1000 nM.

For the compound `OC1CCC(F)(CCC2c3c(F)ccc(F)c3-c3cncn32)CC1` (single isomer, unassigned) [Compound 38b, 4-(2-(6,9-difluoro-5H-imidazo[5,1-a]isoindol-5-yl)ethyl)-4-fluorocyclohexanol], the IC50 lay in the range of 100 to 1000 nM. As for `OC1CCC(F)(CCC2c3c(F)ccc(F)c3-c3cncn32)CC1` (single isomer, unassigned) [Compound 38c, 4-(2-(6,9-difluoro-5H-imidazo[5,1-a]isoindol-5-yl)ethyl)-4-fluorocyclohexanol], the figure is greater than 1000 nM. As for `OC1CCC(F)(CCC2c3c(F)ccc(F)c3-c3cncn32)CC1` (single isomer, unassigned) [Compound 38d, 4-(2-(6,9-difluoro-5H-imidazo[5,1-a]isoindol-5-yl)ethyl)-4-fluorocyclohexanol], the IC50 was less than 100 nM. To `COc1ccc2c(n1)C(CC(O)C1CCCCC1)n1cncc1-2` (single isomer, unassigned) [Compound 39a, 1-Cyclohexyl-2-[10-methoxy-4,6,9-triazatricyclo[6.4.0.0^[2,6]]dodeca-1(8),2,4,9,11-pentaen-7-yl]ethan-1-ol] belongs less than 100 nM; to `COc1ccc2c(n1)C(CC(O)C1CCCCC1)n1cncc1-2` (single isomer, unassigned) [Compound 39b, 1-Cyclohexyl-2-[10-methoxy-4,6,9-triazatricyclo[6.4.0.0^[2,6]]dodeca-1(8),2,4,9,11-pentaen-7-yl]ethan-1-ol], 100 to 1000 nM. To `COc1ccc2c(n1)C(CC(O)C1CCC(C)(C)CC1)n1cncc1-2` (single isomer, unassigned) [Compound 40a, 1-(4,4-dimethylcyclohexyl)-2-[10-methoxy-4,6,9-triazatricyclo[6.4.0.0^[2,6]]dodeca-1(8),2,4,9,11-pentaen-7-yl]ethan-1-ol] belongs greater than 1000 nM; to `COc1ccc2c(n1)C(CC(O)C1CCC(C)(C)CC1)n1cncc1-2` (single isomer, unassigned) [Compound 40b, 1-(4,4-dimethylcyclohexyl)-2-[10-methoxy-4,6,9-triazatricyclo[6.4.0.0^[2,6]]dodeca-1(8),2,4,9,11-pentaen-7-yl]ethan-1-ol], 100 to 1000 nM; to `COc1cccc2c1-c1cncn1C2CCC1(F)CCCCC1` (single isomer, unassigned) [Compound 42a, 5-(2-(1-fluorocyclohexyl)ethyl)-9-methoxy-5H-imidazo[5,1-a]isoindole], greater than 1000 nM. In the case of `COc1cccc2c1-c1cncn1C2CCC1(F)CCCCC1` (single isomer, unassigned) [Compound 42b, 5-(2-(1-fluorocyclohexyl)ethyl)-9-methoxy-5H-imidazo[5,1-a]isoindole], the IC50 is 100 to 1000 nM. As for `Oc1cccc2c1-c1cncn1C2CCC1(F)CCCCC1` (single isomer, unassigned) [Compound 43a, 5-(2-(1-fluorocyclohexyl)ethyl)-5H-imidazo[5,1-a]isoindol-9-ol], the figure is greater than 1000 nM.

These data come from US9771370B2, “Compounds for the inhibition of indoleamine-2,3-dioxygenase” (Merck Patent GmbH, priority 2014, dated 2017).
